Structures are written as SMILES.

The subject of the first experiment is 4T1 murine breast cancer cells. As to the kind of experiment: Example S: in vitro anticancer screen, 4T1 cells, Wst1. The conditions noted are these: Mus musculus, 4T1, 18 h, 1 μM, 18 hr, Wst1; read-out: 4T1 1 μM, percent of cancer cell survival relative to vehicle treated cells. Format: cell-based, mouse. An outline of the steps:
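Read-out is Wst1 absorbance (450 nm, reference 630 nm) after roughly 2 hr dye incubation, giving percent cell survival versus vehicle. Before that, compounds at 1 μM or 5 μM were applied for 18 hr to 4T1 cells plated at 1×10^4 per well.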
For `COc1ccc(C(=O)NCCCCCCCCNc2ccnc3ccccc23)cc1` [EA, 4-Methoxy-N-[8-(quinolin-4-ylamino)octyl]benzamide], the viability at 1 µM is 31.1%.
Turning to `O=C(NCCCCCCCCNc1ccnc2ccccc12)c1ccccn1` [EE, N-[8-(Quinolin-4-ylamino)octyl]picolinamide], the viability at 1 µM turned out to be 24%.
Regarding `O=C(NCCCCCCCCNc1ccnc2ccccc12)c1ccncc1` [EG, N-[8-(Quinolin-4-ylamino)octyl]isonicotinamide], the viability at 1 µM was determined as 34.7%.
Turning to `CCCCCCNc1ccnc2ccccc12` [EI, N-Hexylquinolin-4-amine], the viability at 1 µM is 95%.
`CCCCCCOCCCCCCCCNc1ncnc2ccccc12` [EW, N-[8-(Hexyloxy)octyl]quinazolin-4-amine]: the viability at 1 µM is 21.2%.
`CCCCCCCCCCCCOCCn1cnc2cnc3ccccc3c21` [FG, 1-[2-(Dodecyloxy)ethyl]-1H-imidazo[4,5-c]quinoline]: the viability at 1 µM was found to be 85.7%.

Staying with this experiment, now noted: Mus musculus, 4T1, 18 h, 5 μM, 18 hr, Wst1; read-out: 4T1 5 μM, percent of cancer cell survival relative to vehicle treated cells.
On to `COc1ccc(C(=O)NCCCCCCCCNc2ccnc3ccccc23)cc1` [EA, 4-Methoxy-N-[8-(quinolin-4-ylamino)octyl]benzamide], for which the viability at 5 µM is 36.8%.
For `O=C(NCCCCCCCCNc1ccnc2ccccc12)c1ccccn1` [EE, N-[8-(Quinolin-4-ylamino)octyl]picolinamide], the viability at 5 µM worked out at 18.1%.
Take `O=C(NCCCCCCCCNc1ccnc2ccccc12)c1ccncc1` [EG, N-[8-(Quinolin-4-ylamino)octyl]isonicotinamide]: the viability at 5 µM turned out to be 27.7%.
For the compound `CCCCCCNc1ccnc2ccccc12` [EI, N-Hexylquinolin-4-amine], the viability at 5 µM is 45.8%.
For `CCCCCCOCCCCCCCCNc1ncnc2ccccc12` [EW, N-[8-(Hexyloxy)octyl]quinazolin-4-amine], the viability at 5 µM was determined as 18.9%.
`CCCCCCCCCCCCOCCn1cnc2cnc3ccccc3c21` [FG, 1-[2-(Dodecyloxy)ethyl]-1H-imidazo[4,5-c]quinoline]: the viability at 5 µM came to 25.5%.

The next experiment deals with PC-3 prostate cancer cells. As to the kind of experiment: Example T: sensitisation of PC-3 cells to doxorubicin, oxaliplatin, paclitaxel or vincristine, Wst1. It is filed as cell-based, human. The conditions noted are these: Homo sapiens; PC-3 cells; compound 0.4 μM alone; 72 hours; Wst1; vehicle = 100; read-out: No Chemo: percent cell survival.
As to `COc1ccc(C(=O)NCCCCCCCCNc2ccnc3ccccc23)cc1` [EA, 4-Methoxy-N-[8-(quinolin-4-ylamino)octyl]benzamide], the viability at 0.4 µM turned out to be 108%.
On the same count and under the same terms, as for `O=C(NCCCCCCCCNc1ccnc2ccccc12)c1ccccn1` [EE, N-[8-(Quinolin-4-ylamino)octyl]picolinamide], the figure is 34%; as for `O=C(NCCCCCCCCNc1ccnc2ccccc12)c1ccncc1` [EG, N-[8-(Quinolin-4-ylamino)octyl]isonicotinamide], 92.2%.
As to `CCCCCCOCCCCCCCCNc1ncnc2ccccc12` [EW, N-[8-(Hexyloxy)octyl]quinazolin-4-amine], the viability at 0.4 µM came to 14.1%.

Staying with this experiment, now noted: Homo sapiens; PC-3 cells; compound 1.5 μM alone; 72 hours; Wst1; vehicle = 100; read-out: No Chemo: percent cell survival.
As for `CCCCCCCCCCCCOCCn1cnc2cnc3ccccc3c21` [FG, 1-[2-(Dodecyloxy)ethyl]-1H-imidazo[4,5-c]quinoline], the viability at 1.5 µM was 39.2%.

Still in this experiment, the particulars now being: Homo sapiens; PC-3 cells; compound 2.5 μM alone; 72 hours; Wst1; vehicle = 100; read-out: No Chemo: percent cell survival.
Turning to `CCCCCCNc1ccnc2ccccc12` [EI, N-Hexylquinolin-4-amine], the viability at 2.5 µM is 31.2%.

Still in this experiment, the particulars now being: PC-3 cells; compound 0.4 μM + doxorubicin 3.5 μM; 72 hours; chemotherapy agent alone normalized to 100%.
Regarding `COc1ccc(C(=O)NCCCCCCCCNc2ccnc3ccccc23)cc1` [EA, 4-Methoxy-N-[8-(quinolin-4-ylamino)octyl]benzamide], the “Doxorubicin 3.5 μM: percent cell survival” value is listed as 87.8%.
Still for that read-out and setting: in the case of `O=C(NCCCCCCCCNc1ccnc2ccccc12)c1ccccn1` [EE, N-[8-(Quinolin-4-ylamino)octyl]picolinamide] it was 66.4%; in that of `O=C(NCCCCCCCCNc1ccnc2ccccc12)c1ccncc1` [EG, N-[8-(Quinolin-4-ylamino)octyl]isonicotinamide], 91.3%.
On the same count and under the same terms, as for `CCCCCCOCCCCCCCCNc1ncnc2ccccc12` [EW, N-[8-(Hexyloxy)octyl]quinazolin-4-amine], the figure is 20%.

Staying with this experiment, now noted: PC-3 cells; compound 0.4 μM + oxaliplatin 100 μM; 72 hours; chemotherapy agent alone normalized to 100%.
For the compound `COc1ccc(C(=O)NCCCCCCCCNc2ccnc3ccccc23)cc1` [EA, 4-Methoxy-N-[8-(quinolin-4-ylamino)octyl]benzamide], the “Oxaliplatin 100 μM: percent cell survival” value was 89%.
`O=C(NCCCCCCCCNc1ccnc2ccccc12)c1ccccn1` [EE, N-[8-(Quinolin-4-ylamino)octyl]picolinamide]: the “Oxaliplatin 100 μM: percent cell survival” value is recorded as 70.8%.
As for `O=C(NCCCCCCCCNc1ccnc2ccccc12)c1ccncc1` [EG, N-[8-(Quinolin-4-ylamino)octyl]isonicotinamide], the “Oxaliplatin 100 μM: percent cell survival” value is 96.2%.
For `CCCCCCOCCCCCCCCNc1ncnc2ccccc12` [EW, N-[8-(Hexyloxy)octyl]quinazolin-4-amine], the “Oxaliplatin 100 μM: percent cell survival” value worked out at 16.6%.

The same experiment, now with this note: PC-3 cells; compound 0.4 μM + paclitaxel 50 μM; 72 hours; chemotherapy agent alone normalized to 100%.
Consider `COc1ccc(C(=O)NCCCCCCCCNc2ccnc3ccccc23)cc1` [EA, 4-Methoxy-N-[8-(quinolin-4-ylamino)octyl]benzamide], for which the “Paclitaxel 50 μM: percent cell survival” value is on record as 73.5%.
Turning to `O=C(NCCCCCCCCNc1ccnc2ccccc12)c1ccccn1` [EE, N-[8-(Quinolin-4-ylamino)octyl]picolinamide], the “Paclitaxel 50 μM: percent cell survival” value came to 45.3%.
On to `O=C(NCCCCCCCCNc1ccnc2ccccc12)c1ccncc1` [EG, N-[8-(Quinolin-4-ylamino)octyl]isonicotinamide], for which the “Paclitaxel 50 μM: percent cell survival” value worked out at 95.3%.
As for `CCCCCCOCCCCCCCCNc1ncnc2ccccc12` [EW, N-[8-(Hexyloxy)octyl]quinazolin-4-amine], the “Paclitaxel 50 μM: percent cell survival” value amounted to 21.9%.

Staying with this experiment, now noted: PC-3 cells; compound 0.4 μM + vincristine 100 nM; 72 hours; chemotherapy agent alone normalized to 100%.
With `COc1ccc(C(=O)NCCCCCCCCNc2ccnc3ccccc23)cc1` [EA, 4-Methoxy-N-[8-(quinolin-4-ylamino)octyl]benzamide], the “Vincristine 100 nM: percent cell survival” value worked out at 84.5%.
On to `O=C(NCCCCCCCCNc1ccnc2ccccc12)c1ccccn1` [EE, N-[8-(Quinolin-4-ylamino)octyl]picolinamide], for which the “Vincristine 100 nM: percent cell survival” value stood at 47.1%.
Consider `O=C(NCCCCCCCCNc1ccnc2ccccc12)c1ccncc1` [EG, N-[8-(Quinolin-4-ylamino)octyl]isonicotinamide], for which the “Vincristine 100 nM: percent cell survival” value stood at 88.5%.
`CCCCCCOCCCCCCCCNc1ncnc2ccccc12` [EW, N-[8-(Hexyloxy)octyl]quinazolin-4-amine]: the “Vincristine 100 nM: percent cell survival” value is on record as 14.8%.

Staying with this experiment, now noted: PC-3 cells; compound 1.5 μM + doxorubicin 3.5 μM; 72 hours; chemotherapy agent alone normalized to 100%.
Consider `CCCCCCCCCCCCOCCn1cnc2cnc3ccccc3c21` [FG, 1-[2-(Dodecyloxy)ethyl]-1H-imidazo[4,5-c]quinoline], for which the “Doxorubicin 3.5 μM: percent cell survival” value was determined as 65.7%.

Still in this experiment, the particulars now being: PC-3 cells; compound 1.5 μM + oxaliplatin 100 μM; 72 hours; chemotherapy agent alone normalized to 100%.
Regarding `CCCCCCCCCCCCOCCn1cnc2cnc3ccccc3c21` [FG, 1-[2-(Dodecyloxy)ethyl]-1H-imidazo[4,5-c]quinoline], the “Oxaliplatin 100 μM: percent cell survival” value is on record as 85.5%.

The experiment is the same for the next values; noted with them: PC-3 cells; compound 1.5 μM + paclitaxel 50 μM; 72 hours; chemotherapy agent alone normalized to 100%.
`CCCCCCCCCCCCOCCn1cnc2cnc3ccccc3c21` [FG, 1-[2-(Dodecyloxy)ethyl]-1H-imidazo[4,5-c]quinoline]: the “Paclitaxel 50 μM: percent cell survival” value is recorded as 47.2%.

Still in this experiment, the particulars now being: PC-3 cells; compound 1.5 μM + vincristine 100 nM; 72 hours; chemotherapy agent alone normalized to 100%.
For `CCCCCCCCCCCCOCCn1cnc2cnc3ccccc3c21` [FG, 1-[2-(Dodecyloxy)ethyl]-1H-imidazo[4,5-c]quinoline], the “Vincristine 100 nM: percent cell survival” value amounted to 41%.

The same experiment, now with this note: PC-3 cells; compound 2.5 μM + doxorubicin 3.5 μM; 72 hours; chemotherapy agent alone normalized to 100%.
Take `CCCCCCNc1ccnc2ccccc12` [EI, N-Hexylquinolin-4-amine]: the “Doxorubicin 3.5 μM: percent cell survival” value is 66.1%.

The same experiment, now with this note: PC-3 cells; compound 2.5 μM + oxaliplatin 100 μM; 72 hours; chemotherapy agent alone normalized to 100%.
In the case of `CCCCCCNc1ccnc2ccccc12` [EI, N-Hexylquinolin-4-amine], the “Oxaliplatin 100 μM: percent cell survival” value worked out at 75.1%.

The experiment is the same for the next values; noted with them: PC-3 cells; compound 2.5 μM + paclitaxel 50 μM; 72 hours; chemotherapy agent alone normalized to 100%.
On to `CCCCCCNc1ccnc2ccccc12` [EI, N-Hexylquinolin-4-amine], for which the “Paclitaxel 50 μM: percent cell survival” value was determined as 50.1%.

Still in this experiment, the particulars now being: PC-3 cells; compound 2.5 μM + vincristine 100 nM; 72 hours; chemotherapy agent alone normalized to 100%.
On to `CCCCCCNc1ccnc2ccccc12` [EI, N-Hexylquinolin-4-amine], for which the “Vincristine 100 nM: percent cell survival” value stood at 69.5%.

The subject of another experiment is PC3 human prostate cancer cells. Kind of experiment: Example S: in vitro anticancer screen, PC-3 cells, Wst1. Format: cell-based. Particulars: Homo sapiens, PC-3; 0.4 μM, approximately 20 hours, Wst1; read-out: PC-3, percent of cancer cell survival relative to vehicle treated cells. An outline of the steps: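 Values give percent survival relative to vehicle, read by Wst1 absorbance (450/630 nm) after 2 h dye incubation, in triplicate. Cells were seeded at 2×10^4/well and treated about 20 h with compound at 0.4, 0.5 or 2.5 μM, depending on compound.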
Turning to `COc1ccc(C(=O)NCCCCCCCCNc2ccnc3ccccc23)cc1` [EA, 4-Methoxy-N-[8-(quinolin-4-ylamino)octyl]benzamide], the viability at 0.4 µM was 108%.
Take `O=C(NCCCCCCCCNc1ccnc2ccccc12)c1ccccn1` [EE, N-[8-(Quinolin-4-ylamino)octyl]picolinamide]: the viability at 0.4 µM was determined as 34%.
For the compound `O=C(NCCCCCCCCNc1ccnc2ccccc12)c1ccncc1` [EG, N-[8-(Quinolin-4-ylamino)octyl]isonicotinamide], the viability at 0.4 µM was 92.2%.
Regarding `CCCCCCOCCCCCCCCNc1ncnc2ccccc12` [EW, N-[8-(Hexyloxy)octyl]quinazolin-4-amine], the viability at 0.4 µM worked out at 14.1%.

The experiment is the same for the next values; noted with them: Homo sapiens, PC-3; 1.5 μM, approximately 20 hours, Wst1; read-out: PC-3, percent of cancer cell survival relative to vehicle treated cells.
For the compound `CCCCCCCCCCCCOCCn1cnc2cnc3ccccc3c21` [FG, 1-[2-(Dodecyloxy)ethyl]-1H-imidazo[4,5-c]quinoline], the viability at 1.5 µM is 39.2%.

Still in this experiment, the particulars now being: Homo sapiens, PC-3; 2.5 μM, approximately 20 hours, Wst1; read-out: PC-3, percent of cancer cell survival relative to vehicle treated cells.
For the compound `CCCCCCNc1ccnc2ccccc12` [EI, N-Hexylquinolin-4-amine], the viability at 2.5 µM is 31.2%.

The next experiment relates to THP-1 cells. Kind of experiment: Example D: LPS-triggered THP-1 cell death assay, acute/5-hour and chronic/48-hour. It is filed as cell-based, Human. The conditions noted are these: 10 ng/ml LPS, 0.1 μM test compound, 48 hours. As to the method: Compounds of the invention were tested at 0.1 μM versus AC in the LPS-triggered THP-1 cell death assay. Both acute/5-hour and chronic/48-hour phases of cell death were assessed. Compounds were screened in batches with DMSO as the negative control and AC as the high activity control.
As for `COc1ccc(C(=O)NCCCCCCCCNc2ccnc3ccccc23)cc1` [EA, 4-Methoxy-N-[8-(quinolin-4-ylamino)octyl]benzamide], the “Viable cell percent change, Chronic/48-hour, Mean” value turned out to be 73.48%.
Same read-out and setting: as for `O=C(NCCCCCCCCNc1ccnc2ccccc12)c1ccccn1` [EE, N-[8-(Quinolin-4-ylamino)octyl]picolinamide], the figure is 24.32%; as for `O=C(NCCCCCCCCNc1ccnc2ccccc12)c1ccncc1` [EG, N-[8-(Quinolin-4-ylamino)octyl]isonicotinamide], 60.59%; as for `CCCCCCNc1ccnc2ccccc12` [EI, N-Hexylquinolin-4-amine], 39.53%.
For the compound `CCCCCCCCCCCCOCCn1cnc2cnc3ccccc3c21` [FG, 1-[2-(Dodecyloxy)ethyl]-1H-imidazo[4,5-c]quinoline], the “Viable cell percent change, Chronic/48-hour, Mean” value is 1.15%.

The same experiment, now with this note: 0.1 μM, 5-hour and 48-hour time points.
Take `CCCCCCOCCCCCCCCNc1ncnc2ccccc12` [EW, N-[8-(Hexyloxy)octyl]quinazolin-4-amine]: the “activity relative to AC in the LPS-triggered THP-1 cell death assay, in words” value is “equivalent activity to AC at both the 5-hour and 48-hour time points”.

Source of the values: US20250034139A1, “AMINE COMPOUNDS HAVING ANTI-INFLAMMATORY, ANTIFUNGAL, ANTIPARASITIC, AND ANTICANCER ACTIVITY” (PHARMA CINQ, LLC, priority 2013, published 2025).
